Data reported in patent publication US8586628B2, “Use of Propineb as bird repellent” (Bayer Cropscience AG, priority 2009, dated 2013).
Where “and” joins values, the source holds several entries; their conditions need not be identical. Equal values may be shown once.

Tested on: pigeon
Test: Screening experiment with pigeon on the repellency of treated maize seeds (two-bowl choice, treated vs untreated maize)
Type: in vivo
Settings: for Food consumption of untreated maize (U), Day 1 / Food consumption of untreated maize (U), Day 2: untreated bowl beside treated bowl; for Mean food consumption of untreated maize per group and per day, day 0 / Mean food consumption of untreated maize per group and per day, day 1 / Mean food consumption of untreated maize per group and per day, day 3 / Food consumption of untreated maize (U), Mean/group / Food consumption of untreated maize (U), Mean/birds: untreated bowl; for Food consumption of untreated maize (U), Mean/group / Food consumption of treated maize (T), Mean/group: mean of 3 pigeons over Day 0-2; for Food consumption of untreated maize (U), Day 0: untreated bowl (40 g) offered beside treated bowl
Method: Screening Experiment with Pigeon on the Repellency of Maize Seeds Treated with Different Thiram and Propineb Formulations
15 singly housed pigeons were acclimated to maize as food source over a couple of days. From day—3 to day—1 they received exclusively untreated maize (40 g/bird). Food consumption was determined (see Table 1 below). All birds accepted maize seed as food. The different groups behaved similarly:
Food was offered in 2 bowls, one with treated, the other with untreated maize. The position of the two bowls was changed from day to day as well as during the day. Food consumption was again measured (see Table 2 below)
Group 1 (Aviary 1 to 3): Thiram 160 g/dt
Group 2 (Aviary 4 to 6): Thiram 80 g/dt
Group 3 (Aviary 7 to 9): Propineb160 g/dt
Group 4 (Aviary 10 to 12):Propineb 80 g/dt

[1] = 80 g/dt group, single pigeon, Day 1
[2] = 80 g/dt group, mean per bird over Day 0-2

Compound	Food consumption of untreated maize (U), Day 1 [1]	Food consumption of untreated maize (U), Day 2 (80 g/dt group, single pigeon)	Mean food consumption of untreated maize per group and per day, day 0 (80 g/dt group) [g]	Mean food consumption of untreated maize per group and per day, day 1 (80 g/dt group) [g]	Mean food consumption of untreated maize per group and per day, day 3 (80 g/dt group) [g]	Food consumption of untreated maize (U), Mean/group (80 g/dt group) [g]	Food consumption of untreated maize (U), Mean/birds [2]	Food consumption of untreated maize (U), Day 2 (160 g/dt group, single pigeon)	Mean food consumption of untreated maize per group and per day, day 0 (160 g/dt group) [g]	Mean food consumption of untreated maize per group and per day, day 1 (160 g/dt group) [g]	Mean food consumption of untreated maize per group and per day, day 3 (160 g/dt group) [g]	Food consumption of untreated maize (U), Mean/group (160 g/dt group) [g]	Mean food consumption of treated maize per group and per day, day 0 (maize treated at 80 g/dt) [g]	Mean food consumption of treated maize per group and per day, day 1 (maize treated at 80 g/dt) [g]	Mean food consumption of treated maize per group and per day, day 3 (maize treated at 80 g/dt) [g]	Food consumption of treated maize (T), Mean/group (maize treated at 80 g/dt) [g]	Mean food consumption of treated maize per group and per day, day 0 (maize treated at 160 g/dt) [g]	Mean food consumption of treated maize per group and per day, day 1 (maize treated at 160 g/dt) [g]	Mean food consumption of treated maize per group and per day, day 3 (maize treated at 160 g/dt) [g]	Food consumption of treated maize (T), Mean/group (maize treated at 160 g/dt) [g]	further results
CN(C)C(=S)SSC(=S)N(C)C [Thiram, reference compound]	11.8 g and 18.4 g and 18.2 g	14.5 g and 19.3 g and 19.7 g	16.4	16.1	17.8	16.8	13.6 g and 17.8 g and 18.9 g	14.5 g and 23.4 g and 23.0 g	16.9	18.5	20.3	18.6	0.9	0.2	1.1	0.7	6.0	5.3	2.8	4.6	Food consumption of untreated maize (U), Day 0 (80 g/dt seed treatment group, single pigeon (aviary), Day 0): 14.4 g and 15.8 g and 18.9 g; Food consumption of treated maize (T), Mean/birds (maize treated at 160 g/dt, mean per bird over Day 0-2): 0.0 g
Propineb	17.5 g and 23.2 g and 20.6 g	25.9 g and 27.5 g and 28.6 g	14.1	20.4	27.3	20.6	20.1 g and 23.6 g and 18.0 g	26.1 g and 19.9 g and 28.3 g	22.6	24.8	24.8	24.4	2.8	2.1	0.0	1.7	0.0	0.6	0.0	0.2	Food consumption of untreated maize (U), Day 1 (160 g/dt group, single pigeon, Day 1): 24.6 g and 19.5 g and 30.2 g; Food consumption of untreated maize (U), Mean/birds (160 g/dt group, mean per bird over Day 0-2): 24.6 g and 21.3 g and 26.2 g; Food consumption of untreated maize (U), Day 0 (160 g/dt seed treatment group, single pigeon (aviary), Day 0): 23.1 g and 24.6 g and 20.0 g; Bird repellent activity compared with Thiram (compared at the registered rate of Thiram, pigeon, treated maize seed): substantially better activity than Thiram; Food consumption of treated maize (T), Day 1 (maize treated at 80 g/dt, choice with untreated, single pigeon, Day 1): 2.9 g and 1.7 g and 1.8 g; Food consumption of treated maize (T), Day 2 (maize treated at 80 g/dt, choice with untreated, single pigeon): 0.0 g; Food consumption of treated maize (T), Day 0 (maize treated at 160 g/dt, 40 g offered beside 40 g untreated, single pigeon (aviary), Day 0): 0.0 g; Food consumption of treated maize (T), Day 2 (maize treated at 160 g/dt, choice with untreated, single pigeon): 0.0 g
